Laboratory results published in patent publication US20040009973A1, “Novel potassium channels modulators” (4SC AG, priority 2002, published 2004).

Molecular target: T1, BK potassium channel, cloned hSlo (α-hSlo and β-bSlo) in CHO cells (Homo sapiens, UniProt Q12791)
T1 construct: expressed in transfected cells; host or cells: CHO cells, permanently transfected
Assay: Em-Assay: membrane potential with voltage sensitive dye DiBAC(4)3, fluorescence plate reader
Format: cell-based
Conditions: compound 50 μM; NS004 25 or 50 μM; hSlo transfected CHO cells; change in DiBAC(4)3 fluorescence intensity
Excerpt: The large conductance, voltage-dependent and Ca^2+-activated potassium channel BK is a potassium selective ion channel and belongs to the subfamily of KCa channels. Four BK alpha-subunits form a functional channel that can be regulated by intracellular Ca^2+ concentration, membrane voltage, and other mechanisms like phosphorylation states or beta subunits. To test the biological activity of the compounds, we applied two different techniques, a fluorescence based assay using a voltage sensitive dye (Em-Assay) as well as exploiting electrophysiological methods.
CHO cells permanently transfected with cloned hSlo (α-hSlo and β-bSlo), yielding typical BK potassium currents (Zhou et al., Pflügers Arch., 436: 725-734 (1998), were used for the evaluation of compound activity. Activation or inhibition of BK channels in these cells leads to a change of the electrochemical gradient causing a hyperpolarized or depolarised membrane potential, respectively.
To determine changes in the membrane potential of the cells we used the voltage sensitive dye DiBAC(4)3 (Molecular Probes) in a kinetic assay system using a fluorescent plate reader (Manning and Sontheimer, J. Neurosci, Meth., 91: 73-81 (1999). The anionic bis-oxonol DiBAC(4)3 is a voltage sensitive dye which partitions from the extracellular environment into the cell where it reversibly binds to intracellular proteins, a kinetic process depending on the membrane potential of the cell. At depolarised potentials (i.e. at a reduced K^+ efflux due to blocked K^+ channels) the dye accumulates in the cell leading to an increased fluorescence intensity, due to its increased fluorescence if bound to cellular proteins. At hyperpolarized potentials (i.e. at an increased K^+ efflux due to the opening of K^+ channels), the dye partitions out of the cell causing a decreased fluorescence intensity.
hSlo transfected CHO cells where maintained in DMEM supplemented with 10% FCS, 250 μg/ml Geneticin, 100 μg/ml Hygromycin, 1×HT-Supplement, and 1×Non-essential Amino Acids and cultured in a humidified CO2 incubator. After trypsination, cells where plated with a density of 5×10^4 cells per well on a clear 96-well plate and incubated for 24 h. Cells where washed once with PBS, once with PBS containing 20 mM HEPES (adjusted to pH 7.4 with NaOH) and 2 μM DIBAC(4)3 (DPBS-DiBAC solution). 180 μl of the dPBS-DiBAC solution was then added to the cells and the plate incubated for 30-60 min at 37° C. During this time the dye could partition into the cells and reach a certain steady-state distribution, depending on the resting membrane potential. Test and reference compounds were stored as DMSO stock solutions and diluted in dPBS-DiBAC solution to the desired concentration.
Fluorescence intensity (Ex.: 485 nm/Em.: 520 nm) of each well was detected in the plate reader (Fluostar, BMG) every 60 seconds. After recording the baseline fluorescence for 7 minutes, 20 μl test—and reference compounds were added and the fluorescence intensity was detected for additional 15 minutes. Background was subtracted, data values were normalized and expressed as a change in fluorescence intensity against time. The change in fluorescence intensity caused by the test compounds was evaluated, compared to the effect of the reference compound NS004, and the ratio was determined (see Table I).

T1 sequence (Q12791 1-1178 isoform Q12791-5): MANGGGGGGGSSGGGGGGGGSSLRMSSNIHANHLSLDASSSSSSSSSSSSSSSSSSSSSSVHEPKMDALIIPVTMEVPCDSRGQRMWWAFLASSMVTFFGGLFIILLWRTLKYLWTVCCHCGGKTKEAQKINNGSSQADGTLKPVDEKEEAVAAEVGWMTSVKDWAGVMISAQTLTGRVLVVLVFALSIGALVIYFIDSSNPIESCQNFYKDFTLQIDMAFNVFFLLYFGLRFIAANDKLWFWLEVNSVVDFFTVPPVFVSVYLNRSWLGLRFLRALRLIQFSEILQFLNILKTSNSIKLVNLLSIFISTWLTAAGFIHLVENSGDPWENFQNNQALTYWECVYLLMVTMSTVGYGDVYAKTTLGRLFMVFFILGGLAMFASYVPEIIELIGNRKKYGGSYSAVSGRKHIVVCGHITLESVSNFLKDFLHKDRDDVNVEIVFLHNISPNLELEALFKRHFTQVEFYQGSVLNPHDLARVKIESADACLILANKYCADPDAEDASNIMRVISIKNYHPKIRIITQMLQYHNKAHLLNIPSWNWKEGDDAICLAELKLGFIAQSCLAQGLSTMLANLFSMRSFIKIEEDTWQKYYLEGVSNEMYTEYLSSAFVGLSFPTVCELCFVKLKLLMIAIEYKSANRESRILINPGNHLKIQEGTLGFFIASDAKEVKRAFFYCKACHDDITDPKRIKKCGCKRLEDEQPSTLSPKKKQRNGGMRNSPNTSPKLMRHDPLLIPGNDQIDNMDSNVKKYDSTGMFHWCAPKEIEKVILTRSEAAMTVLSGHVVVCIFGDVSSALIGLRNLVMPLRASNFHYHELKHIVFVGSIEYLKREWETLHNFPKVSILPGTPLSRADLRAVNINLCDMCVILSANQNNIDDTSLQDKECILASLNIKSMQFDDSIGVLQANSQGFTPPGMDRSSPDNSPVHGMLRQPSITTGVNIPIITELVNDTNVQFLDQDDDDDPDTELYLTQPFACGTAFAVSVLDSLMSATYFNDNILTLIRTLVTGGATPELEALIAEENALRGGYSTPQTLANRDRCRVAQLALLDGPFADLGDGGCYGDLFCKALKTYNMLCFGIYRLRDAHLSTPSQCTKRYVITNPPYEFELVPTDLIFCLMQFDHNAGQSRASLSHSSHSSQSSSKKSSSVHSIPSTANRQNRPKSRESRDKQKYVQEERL
T1 sequence (Q28067 2-191 partner limits assumed): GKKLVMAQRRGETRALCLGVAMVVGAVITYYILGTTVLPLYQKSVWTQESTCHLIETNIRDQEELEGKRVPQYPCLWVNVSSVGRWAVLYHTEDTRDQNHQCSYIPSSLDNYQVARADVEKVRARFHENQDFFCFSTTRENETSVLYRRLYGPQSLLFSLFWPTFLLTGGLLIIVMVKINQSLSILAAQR

| Em effect: ratio of the compound effect compared to the maximal effect of NS004 | SMILES |
| --- | --- |
| + (0-1 = +) | N#Cc1cccc(CNc2cccc(NCc3ccc(C(F)(F)F)cc3)c2)c1 [Compound 68] |
| + (0-1 = +) | c1ccc(CNc2cccc(NCc3ccccc3)c2)cc1 [Compound 9, N,N′-Dibenzylbenzene-1,3-diamine] |
| + (0-1 = +) | Cc1cc(NCc2cccc(Cl)c2)ccc1NCc1cccc(Cl)c1 [Compound 17] |
| + (0-1 = +) | COc1cccc(CNc2cc(NCc3csc4ccc(Cl)cc34)cc(C(F)(F)F)c2)c1 [Compound 81] |
| + (0-1 = +) | FC(F)(F)c1cc(NCc2ccccc2Cl)cc(NCc2ccccc2Cl)c1 [Compound 75] |
| + (0-1 = +) | Fc1cccc(Cl)c1CNc1ccc(NCc2c(F)cccc2Cl)c(Cl)c1 [Compound 94] |
| + (0-1 = +) | CC(C)(C)c1ccc(CNc2cc(NCc3ccc(C(C)(C)C)cc3)cc(C(F)(F)F)c2)cc1 [Compound 77, N,N′-bis-(4-tert-butylbenzyl)-5-trifluoromethylbenzene-1,3-diamine] |
| + (0-1 = +) | Cc1cc(NCc2ccc(F)cc2F)ccc1NCc1ccc(F)cc1F [Compound 102, N^1,N^4-bis-(2,4-difluorobenzyl)-2-methylbenzene-1,4-diamine] |
| + (0-1 = +) | Fc1cccc(Cl)c1CNc1ccc(NCc2c(F)cccc2Cl)cc1 [Compound 92] |
| + (0-1 = +) | Cc1cc(NCc2c(F)cccc2Cl)ccc1NCc1c(F)cccc1Cl [Compound 93] |
| + (0-1 = +) | COc1cccc(CNc2cc(NCc3ccc(C(F)(F)F)cc3)cc(C(F)(F)F)c2)c1 [Compound 83, N-(3-methoxybenzyl)-5-tri-fluoromethyl-N′-(4-tri-fluoromethylbenzyl)-benzene-1,3-diamine] |
| + (0-1 = +) | COc1cccc(CNc2cccc(NCc3cccc(Cl)c3)c2)c1 [Compound 58, N-(3-chlorobenzyl)-N′-(3-methoxybenzyl)-benzene-1,3-diamine] |
| + (0-1 = +) | CC(C)(C)c1ccc(CNc2cccc(NCc3cccc(Cl)c3)c2)cc1 [Compound 42, N-(4tert-butylbenzyl)-N′-(3-chloro-benzyl)-benzene-1,3-diamine] |
| + (0-1 = +) | COc1cccc(CNc2cc(NCc3cccc(OC)c3)cc(C(F)(F)F)c2)c1 [Compound 76, N,N′-bis-(3-methoxybenzyl)-5-trifluoromethylbenzene-1,3-diamine] |
| + (0-1 = +) | COc1cccc(CNc2cc(Cl)c(NCc3cccc(OC)c3)c(Cl)c2)c1 [Compound 90, 2,6-dichloro-N,N′-bis-(3-methoxy-benzyl)-benzene-1,4-diamine] |
| + (0-1 = +) | Fc1cccc(F)c1CNc1cccc(NCc2csc3ccc(Cl)cc23)c1 [Compound 49, N-(5-chlorobenzo[b]thiophen-3-ylmetbyl)-N′-(2,6-difluorobenzyl)-benzene-1,3-diamine] |
| + (0-1 = +) | CC(C)(C)c1ccc(CNc2cccc(NCc3csc4ccc(Cl)cc34)c2)cc1 [Compound 40] |
| + (0-1 = +) | COc1cccc(CNc2cccc(NCc3ccc(F)cc3Cl)c2)c1 [Compound 67] |
| + (0-1 = +) | COc1cccc(CNc2cccc(NCc3csc4ccc(Cl)cc34)c2)c1 [Compound 56, N-(5-chlorobenzo[b]thiophen-3-ylmethyl)-N′-(3-methoxybenzyl)-benzene-1,3diamine] |
| + (0-1 = +) | Cc1cc(NCc2ccc3ccccc3c2)ccc1NCc1ccc2ccccc2c1 [Compound 16] |
| + (0-1 = +) | Cc1cc(NCc2ccc(-c3csnn3)cc2)ccc1NCc1ccc(-c2csnn2)cc1 [Compound 87] |

More lines, now with the values behind:

| SMILES | Em effect: ratio of the compound effect compared to the maximal effect of NS004 |
| --- | --- |
| Clc1ccccc1CNc1ccc(NCc2ccccc2Cl)c(Cl)c1 [Compound 96] | + (0-1 = +) |
| O=[N+]([O-])c1ccc(CNc2cccc(NCc3ccc(F)cc3)c2)o1 [Compound 46] | ++ (>1-1.5 = ++) |
| O=[N+]([O-])c1ccc(CNc2ccc(NCc3ccc4ccccc4c3)cc2Cl)cc1 [Compound 25] | + (0-1 = +) |
| Clc1cc(NCc2ccc(-c3csnn3)cc2)cc(Cl)c1NCc1ccc(-c2csnn2)cc1 [Compound 91] | + (0-1 = +) |
| COc1cccc(CNc2cccc(NCc3ccc(-c4csnn4)cc3)c2)c1 [Compound 59, N-(3-methoxybenzyl)-N′-(4-[1,2,3]thiadiazol-4-yl-benzyl)-benzene-1,3-diamine] | + (0-1 = +) |
| FC(F)(F)c1ccccc1CNc1cccc(NCc2csc3ccc(Cl)cc23)c1 [Compound 62] | + (0-1 = +) |
| CS(=O)(=O)c1ccc(CNc2cccc(NCc3ccc(F)cc3Cl)c2)cc1 [Compound 65, N-(2-chloro-4-fluorobenzyl)-N′-(4-methanesulfonylbenzyl)-benzene-1,3-diamine] | + (0-1 = +) |
| CC(C)(C)c1ccc(CNc2cc(NCc3ccc(C(F)(F)F)cc3)cc(C(F)(F)F)c2)cc1 [Compound 84] | + (0-1 = +) |
| Fc1ccc(CNc2cccc(NCc3csc4ccc(Cl)cc34)c2)c(Cl)c1 [Compound 64, N-(5-chlorobenzo[b]thiophen-3-ylmethyl)-N′-(2-chloro-4-fluorobenzyl)-benzene-1,3-diamine] | + (0-1 = +) |
| CC(C)(C)c1ccc(CNc2cc(NCc3ccc(-c4csnn4)cc3)cc(C(F)(F)F)c2)cc1 [Compound 79, N-(4-tert-butylbenzyl)-N′-(4-[1,2,3]thiadiazol-4-yl-benzyl)-5-tri-fluoromethylbenzene-1,3-diamine] | + (0-1 = +) |
| O=[N+]([O-])c1ccc(CNc2ccc(NCc3cccc(Cl)c3)cc2Cl)cc1 [Compound 24] | + (0-1 = +) |
| O=[N+]([O-])c1ccc(CNc2cc(NCc3ccc([N+](=O)[O-])cc3)cc(C(F)(F)F)c2)cc1 [Compound 1] | + (0-1 = +) |
| Fc1cccc(CNc2cccc(NCc3csc4ccc(Cl)cc34)c2)c1 [Compound 60] | + (0-1 = +) |
| Fc1cc(F)cc(CNc2cc(NCc3csc4ccc(Cl)cc34)cc(C(F)(F)F)c2)c1 [Compound 80] | + (0-1 = +) |
| COc1cccc(CNc2cccc(NCc3cccc(OC)c3)c2)c1 [Compound 33] | + (0-1 = +) |
| O=[N+]([O-])c1ccc(CNc2cc(NCc3ccc4ccccc4c3)cc(C(F)(F)F)c2)cc1 [Compound 8] | + (0-1 = +) |
| Fc1ccc(CNc2cccc(NCc3ccc(-c4csnn4)cc3)c2)c(F)c1 [Compound 52, N-(2,4-difluorobenzyl)-N′-(4-[1,2,3]thiadiazol-4-yl-benzyl)-benzene-1,3-diamine] | + (0-1 = +) |
| FC(F)(F)c1ccccc1CNc1cccc(NCc2ccc(-c3csnn3)cc2)c1 [Compound 61, N-(4-[1,2,3]thiadiazol-4-yl-benzyl)-N′-(2-tri-fluoromethylbenzyl)-benzene-1,3-diamine] | + (0-1 = +) |
